Entries after “also recorded” stand apart in the source; their conditions may differ.
Columns and labels:
[1] = tested on: P. aeruginosa strains 762, PA14 and ATCC 27853; experiment: Pulmonary P. aeruginosa infection of CF and CerS2 null mice, inhalation treatment (bacteria in lung, sickness score); type: in vivo, mouse; settings: CF and CerS2 null mice; inhalation (125 μM) 1 h before or 1 h after intranasal infection with 1×10^8 CFU
Procedure: (A,B) The number of bacteria in the lungs and the overall sickness score (C,D) of WT, CerS2 null and CF mice 3-4 h after intranasal infection with 1×10^8 CFU of P. aeruginosa strains 762 (A,C) and CF mice with strains PA14 and ATCC 27853. Mice were inhaled with 0.9% NaCl or acid ceramidase 1 h prior (b.i.) to infection, or with sphingosine or FTY720 1 h before (b.i.) or 1 h after (a.i.) infection. Sickness score 4, severely affected (unresponsive animal); score 3 affected, (heavy breathing, low body temperature, ruffled fur) score 2, moderately affected (ruffled fur, heavy breathing); score 1, slightly affected (ruffled fur); score 0, unaffected (healthy appearance). Data are means±s.d., n=4.
Pulmonary infection of CF or CerS2 mice was achieved by intranasal application of P. aeruginosa strains 762, ATCC 27853 or PA14. Mice inhaled acid ceramidase, sphingosine, FTY720 or a combination of sphingosine and ceramide 1 hr before or after pulmonary infection. The number of bacteria in the lung was determined by culturing aliquots of lysed lungs on agar plates. Clinical symptoms of the infection were scored.
Inhalation was performed with a PARI Boy SX nebulizer (PARI GmbH, Starnberg, Germany). This nebulizer generates a fine aerosol mist by pumping the fluid with an air jet. The mice inhaled the aerosol via a mask that is part of an oral inhalation device for children (LL-Nebulizer); the mask was clipped at the sides to cover only the mouse's nose and the surrounding part of the face. […]
P. aeruginosa were grown for 14 to 14.5 h on fresh tryptic soy agar (TSA) plates (Becton Dickinson Biosciences, Germany). […] The bacterial OD was determined, and the bacteria were diluted in prewarmed H/S to a concentration of 1×10^8 CFU per 20 μL. […]
Lungs were removed, homogenised and lysed for 10 min in 5 mg/ml saponin to release intracellular bacteria. […] Bacterial counts (CFU) were counted after 18 h.

P. aeruginosa = experiment: Sytox green staining (membrane permeabilization of bacteria); type: cell-based, Pseudomonas aeruginosa; settings: 50 μM in 1% DMSO, 30 min
Procedure: FIGS. 4A-D. The ceramide/sphingosine ratio regulates P. aeruginosa growth. (A) Representative image of two independent experiments (left hand panel) after addition of Sytox green (1 μM) for 30 min in the absence or presence of 50 μM sphingosine or 50 μM C16-ceramide (C16-Cer) in 1% DMSO. Fluorescent and thus permeabilised bacteria were quantified (right hand panel). (B-D) The inhibitory effect of sphingosine on the growth of P. aeruginosa strain 762 is decreased in vitro and in vivo by C16-ceramide. (B) Bacteria were incubated with 10 μM sphingosine, and increasing concentrations of C16-ceramide, and growth was determined by counting colony forming unit (CFU) after 24 hrs growth on LB agar plates. Number of bacteria in the lung (C) and sickness score (D) of CF mice or WT mice inhaled with either sphingosine or a combination of sphingosine and C16-ceramide 1 h before (b.i.) with 10^8 P. aeruginosa CFU strain 762. Data are means±s.d., n=3 in (A,B) and n=4 in (C,D).
Bacteria at early logarithmic phase were incubated in the presence or absence of sphingosine or C16-ceramide (C16-cer) (50 μM in 1% DMSO) for 30 minutes at 37° C. […] Sample were examined under fluorescence microscope, and bacteria were counted both in bright field and under green fluorescent filter in two independent experiments.

SMILES: CCCCCCCCCCCCC/C=C/[C@@H](O)[C@@H](N)CO (stereo in doubt) [D-erythro-Sphingosine, (2S,3R)-2-aminooctadec-4-ene-1,3-diol]
- protection from pulmonary P. aeruginosa infection [1]: completely protected CF and CerS2 null mice from P. aeruginosa infection and even eliminated an existing infection; also recorded: rescue CF and CerS2 null mice from pulmonary P. aeruginosa infection; also recorded: prevents pulmonary P. aeruginosa infection
- Sytox green fluorescence of bacteria (P. aeruginosa): large increase in fluorescence
